According to patent US6608073B1 (New Millennium Pharmaceutical Research, Inc., priority 1998, dated 2003):

Assays:
[1] = Penetration of codeine into CSF of rats after intravenous or intranasal administration (HPLC); conditions: 60 minutes post-dose
Procedure: At 60 minutes post-dose, the rats were sacrificed, and the CSF (0.1 ml) was recovered and injected directly onto the HPLC column.

[2] = Plasma levels of codeine in rats after intravenous or intranasal administration (HPLC)
Procedure: One hundred μL of rat plasma was treated with 100 μL of acetonitrile to precipitate the proteins. This mixture was centrifuged for 5 minutes at 5,000×g. The clear supernatant was injected onto the HPLC column.
The HPLC system included the following:
Column: Altex 5 micron Ultrasphere, 4.6 mm×25 cm
Mobile Phase: Acetonitrile: 0.01 M Acetate buffer (pH 4.0)−50:50
Standard Curve: See FIG. 1

[3] = in vivo; cited from earlier work
[4] = rat, plasma, inhaled or intranasal, 10 mg/kg
[5] = rat, plasma, other: intranasal, 5 mg/kg
[6] = rat, plasma, other: intranasal, 10 mg/kg

COc1ccc2c3c1O[C@H]1[C@@H](O)C=C[C@H]4[C@@H](C2)N(C)CC[C@@]341 [Codeine]
CSF levels for 5 mg/kg intranasally compared with 10 mg/kg intravenously [1]: much higher | AUC(0-t) ([2]; rat, plasma, inhaled or intranasal, 5 mg/kg): 1.48 µg·h/mL | AUC(0-t) [2, 4]: 2.84 µg·h/mL | bioavailability [2, 4]: 115% | AUC(0-t) ([2]; rat, plasma, iv, 10 mg/kg): 2.46 µg·h/mL | concentration at 0 min ([2]; rat, plasma, iv, 10 mg/kg): 19.4 µg/mL | concentration at 2 min ([2]; rat, plasma, iv, 10 mg/kg): 9.4 µg/mL | concentration at 5 min ([2]; rat, plasma, iv, 10 mg/kg): 5.2 µg/mL | concentration at 10 min ([2]; rat, plasma, iv, 10 mg/kg): 2.7 µg/mL | concentration at 20 min ([2]; rat, plasma, iv, 10 mg/kg): 2.04 µg/mL | concentration at 40 min ([2]; rat, plasma, iv, 10 mg/kg): 1.22 µg/mL | concentration at 60 min ([2]; rat, plasma, iv, 10 mg/kg): 0.86 µg/mL | concentration at 0 min [2, 5]: 0 µg/mL | concentration at 2 min [2, 5]: 0.84 µg/mL | concentration at 5 min [2, 5]: 2.88 µg/mL | concentration at 10 min [2, 5]: 3.15 µg/mL | concentration at 20 min [2, 5]: 2.24 µg/mL | concentration at 40 min [2, 5]: 0.6 µg/mL | concentration at 60 min [2, 5]: 0.56 µg/mL | concentration at 0 min [2, 6]: 0 µg/mL | concentration at 2 min [2, 6]: 1.4 µg/mL | concentration at 5 min [2, 6]: 5.1 µg/mL | concentration at 10 min [2, 6]: 7.62 µg/mL | concentration at 20 min [2, 6]: 3.32 µg/mL | concentration at 40 min [2, 6]: 1.42 µg/mL | concentration at 60 min [2, 6]: 1.1 µg/mL | Absorption following intranasal administration compared with intravenous ([2]; rats, IN vs IV): rapidly and completely absorbed | Half-life in plasma [3]: 2 to 4 h
